Patent publication US6579982B1, “Pyrimidine-2,4,6-trione metalloproteinase inhibitors” (Pfizer Inc., priority 1999, dated 2003)

Row | SMILES | melting point
1 | CC1(Oc2ccc(-c3ccccc3)cc2)C(=O)NC(=O)NC1=O | 200 to 202 °C
2 | CCCCC1(Oc2ccc(Oc3ccc(F)cc3)cc2)C(=O)NC(=O)NC1=O | 183 °C
3 | CCCCC1(Oc2ccc(Oc3ccccc3)cc2)C(=O)NC(=O)NC1=O | 59 to 60 °C
4 | CC1(Oc2cccc(-c3ccccc3)c2)C(=O)NC(=O)NC1=O | 175 °C
5 | CC1(Oc2ccc(Oc3ccccc3)cc2)C(=O)NC(=O)NC1=O | 182 °C
6 | CC1(Oc2ccc(Oc3ccc(F)cc3)cc2)C(=O)NC(=O)NC1=O | 187 to 189 °C
